Results on 15 molecules are retold here after patent US20040002465A1, “Polyene macrolide derivatives, use for vectoring molecules” (UNIVERSITE PIERRE ET MARIE CURIE, priority 1998, published 2004).

Data set [1] concerns ATCC 10261 Candida albicans. Description: Antifungal activity, growth inhibition of Candida albicans culture. The data set is classed as cell-based. As to conditions: concentration inducing 50% inhibition of strain growth; liquid Sabouraud medium, 24 hours at 30° C., spectrophotometry at 660 nm. As for the experimental part:
More particularly, each compound was incubated at different concentrations with a culture of ATCC 10261 Candida albicans (inoculum, […]) in liquid Sabouraud medium for 24 hours at 30° C. Cell growth was then measured by spectrophotometry at a wavelength of 660 nm.

The subject of data set [2] is P-gp in NIH-MDR G185 cells (3T3 R). The data set is classed as cell-based, human.
A further data set deals with MCF 7 cells. Briefly: Internalisation of FITC-labelled anti-gene oligonucleotide. It counts as cell-based, human. The note with it: charge ratio 5, compared with AmE, Lipofectine or free oligonucleotides.
Data set [3] relates to 27-mer oligonucleotide (ODN) in 10% (v/v) foetal calf serum. Description: Seric degradation of delivered oligonucleotide, gel autoradiography. As to conditions: +/− charge ratio 10, 10% (v/v) foetal calf serum, 37° C., up to 16 hours; versus non delivered ODN. As to the method: A 27-mer oligonucleotide (ODN) was rendered radioactive by labelling at the 5′ end with ^32P using a standard procedure (Pharmacia) using T4 polynucleotide kinase and ^32(γ)ATP. A small quantity of this ^32P labelled ODN was mixed with cold ODN. AmA was added in a concentration such that the +/− charge ratio was 10 and the complex was allowed to form at ambient temperature for 30 minutes. A sample containing no AmA constituted the control (non delivered ODN). ODN degradation was triggered at time 0 at 37° C. by adding 10% (v/v) foetal calf serum in which the enzymatic activity was essentially 3′-exonucleasic (Sirotkin, Cooley et al., 1978). At intervals, samples were removed for which the action of the enzymes was stopped by adding formamide and placing the tube in ice. The reaction wsa stopped after 4, 6, 8 and 16 hours of incubation with the serum. The samples were then migrated on a denaturing (7 M urea) 20% polyacrylamide gel.

Data set [4] concerns 3T3 cells. Description: Internalisation of FITC-labelled antisense oligonucleotide, confocal microspectrofluorimetry. It counts as cell-based. As to conditions: 4 hours.
Data set [5] has as its system 3T3 cells. Description: Toxicity of AmA with or without antisense oligonucleotide, MTT cellular viability. The note with it: 4 hours at 37° C.

In brackets after ≈: the same amount, converted by molar mass.

Chain of P-gp in NIH-MDR G185 cells (3T3 R) (P08183 whole entry): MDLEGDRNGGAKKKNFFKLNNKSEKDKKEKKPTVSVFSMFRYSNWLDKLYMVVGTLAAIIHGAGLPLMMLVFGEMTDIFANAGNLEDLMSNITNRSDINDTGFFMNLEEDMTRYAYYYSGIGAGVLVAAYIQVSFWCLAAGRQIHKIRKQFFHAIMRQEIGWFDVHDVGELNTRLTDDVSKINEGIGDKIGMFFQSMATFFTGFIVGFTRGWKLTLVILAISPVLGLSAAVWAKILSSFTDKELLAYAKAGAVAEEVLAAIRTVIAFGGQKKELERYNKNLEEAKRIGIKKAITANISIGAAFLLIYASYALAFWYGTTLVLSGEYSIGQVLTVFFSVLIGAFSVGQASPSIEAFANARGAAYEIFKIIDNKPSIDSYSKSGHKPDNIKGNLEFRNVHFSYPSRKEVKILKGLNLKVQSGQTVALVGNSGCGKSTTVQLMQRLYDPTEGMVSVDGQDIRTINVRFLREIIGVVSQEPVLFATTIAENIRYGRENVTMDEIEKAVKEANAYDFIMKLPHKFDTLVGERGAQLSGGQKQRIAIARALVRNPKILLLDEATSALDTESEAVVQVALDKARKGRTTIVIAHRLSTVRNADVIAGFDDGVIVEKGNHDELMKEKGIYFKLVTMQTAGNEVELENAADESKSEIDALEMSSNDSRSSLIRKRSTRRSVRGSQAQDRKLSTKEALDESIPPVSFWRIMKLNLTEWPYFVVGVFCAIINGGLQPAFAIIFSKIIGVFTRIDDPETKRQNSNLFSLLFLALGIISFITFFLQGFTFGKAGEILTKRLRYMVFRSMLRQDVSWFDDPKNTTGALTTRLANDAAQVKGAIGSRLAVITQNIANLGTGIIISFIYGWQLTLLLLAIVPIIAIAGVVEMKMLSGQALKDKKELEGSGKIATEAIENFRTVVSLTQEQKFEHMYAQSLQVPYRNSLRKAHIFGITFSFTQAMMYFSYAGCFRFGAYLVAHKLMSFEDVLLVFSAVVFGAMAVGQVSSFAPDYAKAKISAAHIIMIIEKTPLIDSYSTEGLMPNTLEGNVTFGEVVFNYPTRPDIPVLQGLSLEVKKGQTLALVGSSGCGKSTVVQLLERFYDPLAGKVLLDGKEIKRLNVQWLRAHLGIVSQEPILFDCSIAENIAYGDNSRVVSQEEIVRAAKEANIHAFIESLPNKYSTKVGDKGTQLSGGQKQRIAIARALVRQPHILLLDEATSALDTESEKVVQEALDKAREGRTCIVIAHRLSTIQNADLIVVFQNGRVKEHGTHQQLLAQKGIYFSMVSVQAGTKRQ

Usually IC50 stands for the concentration that inhibits the measured activity by half. A low value points to higher potency. As for “L-aspartate salt of OAMA [OAMA L-aspartate]”, the IC50 in data set [1] is 0.17 µg/mL.

Take `CC1C=CC=CC=CC=CC=CC=CC=CC(OC2OC(C)C(O)C(N)C2O)CC2OC(O)(CC(O)CC(O)C(O)CCC(O)CC(O)CC(=O)OC(C)C(C)C1O)CC(O)C2C(=O)NCCc1ccccn1` (stereo not drawn) [AMPEA, Amphotericin B 2-(2-pyridyl)ethylamide]: the IC50 in data set [1] stood at 0.015 µg/mL (≈ 0.0146 µM). On the same count and under the same terms, the result for “N-(4-methyl-1-piperazinepropionyl) AMPA [PAMPA]” reads 0.17 µg/mL; that for `CC1C=CC=CC=CC=CC=CC=CC=CC(OC2OC(C)C(O)C(N)C2O)CC2OC(O)(CC(O)CC(O)C(O)CCC(O)CC(O)CC(=O)OC(C)C(C)C1O)CC(O)C2C(=O)N1CCN(C)CC1` (stereo not drawn) [AMPA, Amphotericin B B-4-methylpiperizyne amide], 0.015 µg/mL (≈ 0.0149 µM). Still for that read-out and setting: the result for Amphotericin B N1-sperminylamide [AMSA] reads 0.10 µg/mL; that for “2-dimethylaminoethyl ester of amphotericin B [AMEE]”, 0.08 µg/mL. On the same count and under the same terms, the result for “Amphotericin B 3-dimethylaminopropyl ester [AMPE]” reads 0.10 µg/mL.

Molecule “N-(4-methyl-1-piperazinepropionyl)AME [PNAME]” had a half-inhibitory concentration (IC50) in data set [1] of 0.16 µg/mL. Against the preceding molecule, the IC50 is about 1.6-fold higher.

“Amphotericin B dimethylaminopropylamide [AMA]”: in data set [2], the “synthesis of P-gp, possible vector effect” value is recorded as “did not itself inhibit synthesis of P-gp”. Moreover, the “internalisation of fluorescent oligonucleotide (fluorescence intensity of cells)” value in the data set on MCF 7 cells is recorded as “much greater internalisation”; in the data set on 3T3 cells [4] (AmA 1×10^−5 M and 2×10^−5 M, compared with AmE, Lipofectine (20 μg/ml) or the oligonucleotides alone), “much greater internalisation”. In data set [3], the “seric degradation of the delivered oligonucleotide” value is recorded as “slowed that degradation”. Also, in the data set on 3T3 cells [4] (nucleus versus cytoplasm), the “intracellular distribution of fluorescence” value was “distributed homogeneously inside the cells”. Further, in the data set on 3T3 cells [5] (MTT), the “concentration below which cell growth appears to have been stimulated” value is on record as “below 10^−5 M”. The “concentration below which no toxicity was observed (cellular viability, MTT)” value in the data set on 3T3 cells [5] (serum-free DMEM, AmA in the presence or absence of oligonucleotide) is recorded as “below 2×10^−5 M”. As to N-(1-piperdinepropionyl) AME [PAME], the concentration for half-maximal inhibition (IC50) in data set [1] is 0.15 µg/mL. Same read-out and setting: the result for “Amphotericin B (N^2-lysyllysine methylester) amide [AMDLA]” reads 0.12 µg/mL. Same read-out and setting: the same measure for “N-(Nα, Nα, Nα,Nε, Nε, Nε,-hexamethyl) AME [MLAME]”: 0.15 µg/mL. Still for that read-out and setting: the same measure for N-ornithyl-AMA [OAMA]: 0.15 µg/mL. On to “N-(N′-3-dimethylaminopropyl-succinimido) amphotericin B methyl ester [SAME]”, for which the IC50 in data set [1] was 0.125 µg/mL. Molecule “Amphotericin B-2-(morpholyl)ethylamide [AMMEA]” yielded a half-maximal inhibitory concentration (IC50) in data set [1] of 0.013 µg/mL. This IC50 lies about 9.6-fold lower than the previous one.
